Assay results: paper PMC9964651, “Discovery of Ureido-Based Apcin Analogues as Cdc20-specific Inhibitors against Cancer” (Pharmaceuticals, 2023)
Structures can show the parent of a compound that is named as a salt. Where two headings read alike, the source gives them in different places.

Key:
Hela = test: In vitro antiproliferative assay (CCK-8); assay type: cell-based, human; conditions: CCK-8, 48 h, mean ± SD
From the text: The experiment was repeated three times.

Mda-mb-231 = test: In vitro antiproliferative assay (CCK-8); conditions: read-out: IC50 ± SD Mda-mb-231
Method: (§1) Hela and MDA-MB-132 cells were grown in DMEM (Gibco) containing 10% FBS and 1% double antibody (penicillin 100 U/mL, streptomycin 100 μg/mL, Solarbio). […] All cell lines were purchased from the Xiangya Cell Bank, Central South University, Changsha, China, and incubated at 37 °C with 5% CO2 in a humidified atmosphere. […] Cytotoxicity assay was assessed using CCK-8 methods. The cells were seeded in a 96-well plate (2 × 10^3–3 × 10^3 cells/well), the 96-well plate was incubated at 37 °C with 5% CO2 in a humidified atmosphere, and the cells were grown in a monolayer; the original culture was discarded. A total of 100 μL of drug-containing medium with a specific concentration gradient was added and then cultivated for 48 h; 10 μL/well of CCK-8 solution was added, put in an incubator, and incubated for 1 h and read with a multi-function microplate reader at a wavelength of 450 nm. The inhibition rate was calculated, and the IC50 results were calculated by GraphPad Prism 7 software. The experiment was repeated three times.

Hepg2 = test: In vitro antiproliferative assay (CCK-8); conditions: read-out: IC50 ± SD Hepg2
Method: as §1

Mcf-7 = test: In vitro antiproliferative assay (CCK-8); conditions: read-out: IC50 ± SD Mcf-7
Method: as §1

four cancer-cell lines = test: In vitro antiproliferative assay (CCK-8), cell line not given; conditions: Homo sapiens, read-out: IC50 (antiproliferative activity)

| IC50 (Hela; Homo sapiens, HeLa) | IC50 (Mda-mb-231; Homo sapiens, MDA-MB-231, 48 h) | IC50 (Hepg2; Homo sapiens, HepG2, 48 h) | IC50 (Mcf-7; Homo sapiens, MCF7, 48 h) | IC50 (four cancer-cell lines) | IC50 (Hela) | IC50 (Mda-mb-231; CCK-8, 48 h, mean ± SD) | IC50 (Hepg2; CCK-8, 48 h, mean ± SD) | IC50 (Mcf-7; CCK-8, 48 h, mean ± SD) | Compound |
| --- | --- | --- | --- | --- | --- | --- | --- | --- | --- |
| 43.5 ± 20.4 µM | > 100 µM | 27.1 ± 5.27 µM | 27.7 ± 2.13 µM | – | – | – | – | – | Cc1c(Cl)nc(NC(NC(=O)NCCc2ccccc2)C(Cl)(Cl)Cl)nc1Cl (stereo not shown) [Compound 12, 1-phenethyl-3-(2,2,2-trichloro-1-((4,6-dichloro-5-methylpyrimidin-2-yl)amino)ethyl)urea] |
| > 100 µM | > 100 µM | > 100 µM | > 100 µM | > 80 µM | – | – | – | – | CCNC(=O)NC(Nc1ncccn1)C(Cl)(Cl)Cl (stereo not shown) [Compound 5, 1-ethyl-3-(2,2,2-trichloro-1-(pyrimidin-2-ylamino)ethyl)urea] |
| 0.08 ± 0.01 µM | 0.37 ± 0.07 µM | 0.13 ± 0.05 µM | 0.23 ± 0.09 µM | – | – | – | – | – | Cc1ncc([N+](=O)[O-])n1CCNC(=O)NC(n1cnc2c(N)nc(F)nc21)C(Cl)(Cl)Cl (stereo not shown) [Compound 29, 1-(1-(6-amino-2-fluoro-9H-purin-9-yl)-2,2,2-trichloroethyl)-3-(2-(2-methyl-5-nitro-1H-imidazol-1-yl)ethyl)urea] |
| > 100 µM | > 100 µM | > 100 µM | > 100 µM | – | – | – | – | – | N#Cc1cnc(NC(NC(=O)NCCc2ccccc2)C(Cl)(Cl)Cl)nc1 (stereo not shown) [Compound 15, 1-phenethyl-3-(2,2,2-trichloro-1-((5-cyanopyrimidin-2-yl)amin-o)ethyl)urea] |
| > 100 µM | > 100 µM | > 100 µM | > 100 µM | > 80 µM | – | – | – | – | O=C(NC1CCCCC1)NC(Nc1ncccn1)C(Cl)(Cl)Cl (stereo not shown) [Compound 3, 1-cyclohexyl-3-(2,2,2-trichloro-1-(pyrimidin-2-ylamino)ethyl)urea] |
| > 100 µM | > 100 µM | > 100 µM | > 100 µM | > 80 µM | – | – | – | – | O=C(NCCN1CCOCC1)NC(Nc1ncccn1)C(Cl)(Cl)Cl (stereo not shown) [Compound 4, 1-(2-morpholinoethyl)-3-(2,2,2-trichloro-1-(pyrimidin-2ylamino)ethyl)urea] |
| > 100 µM | > 100 µM | > 100 µM | > 100 µM | – | – | – | – | – | O=C(NCCc1ccccc1)NC(Nc1ncc(F)cn1)C(Cl)(Cl)Cl (stereo not shown) [Compound 16, 1-phenethyl-3-(2,2,2-trichloro-1-((5-fluoropyrimidin-2-yl)amin-no)ethyl)urea] |
| > 100 µM | 58.6 ± 18.4 µM | 32.4 ± 5 µM | 29.2 ± 3.46 µM | – | – | – | – | – | COC(=O)c1cnc(NC(NC(=O)NCCc2ccccc2)C(Cl)(Cl)Cl)nc1C (stereo not shown) [Compound 24, Methyl-4-methyl-2-((2,2,2-trichloro-1-(3-phenethylureido)eth-yl)amino)pyrimidine-5-carboxylate] |
| > 100 µM | > 100 µM | > 100 µM | > 100 µM | – | – | – | – | – | Cc1ccc(S(=O)(=O)NC(=O)NC(Nc2nccc(C(F)(F)F)n2)C(Cl)(Cl)Cl)cc1 (stereo not shown) [Compound 8, 4-methyl-N-((2,2,2-trichloro-1-((4-(trifluoromethyl)pyrimidin-2-yl)amino)ethyl)carbamoyl)benzenesulfonamide] |
| 86.7 ± 4.25 µM | > 100 µM | 66.3 ± 1.91 µM | 79.3 ± 20.3 µM | – | – | – | – | – | O=C(NCCc1ccccc1)NC(Nc1ncccn1)C(Cl)(Cl)Cl (stereo not shown) [Compound 2, 1-phenethyl-3-(2,2,2-trichloro-1-(pyrimidin-2-ylamino)ethyl)urea] |
| > 100 µM | > 100 µM | > 100 µM | > 100 µM | > 80 µM | – | – | – | – | O=C(NC(Nc1ncccn1)C(Cl)(Cl)Cl)NS(=O)(=O)c1ccccc1 (stereo not shown) [Compound 6, N-((2,2,2-trichloro-1-(pyrimidin-2-ylamino)ethyl)carbamoyl)benzenesulfonamide] |
| > 100 µM | > 100 µM | > 100 µM | > 100 µM | – | – | – | – | – | Cc1c(Cl)nc(NC(NC(=O)NS(=O)(=O)c2ccccc2)C(Cl)(Cl)Cl)nc1Cl (stereo not shown) [Compound 11, N-((2,2,2-trichloro-1-((4,6-dichloro-5-methylpyrimidin-2yl)amino)ethyl)carbamoyl)benzenesulfonamide] |
| > 100 µM | > 100 µM | > 100 µM | > 100 µM | – | – | – | – | – | Nc1c(Cl)nc(NC(NC(=O)NCCN2CCOCC2)C(Cl)(Cl)Cl)nc1Cl (stereo not shown) [Compound 21, 1-(1-((5-amino-4,6-dichloropyrimidin-2-yl)-l4-azanyl)-2,2,2-trichloroethyl)-3-(2-morpholinoethyl)urea] |
| > 100 µM | > 100 µM | > 100 µM | > 100 µM | – | – | – | – | – | O=C(NC(Nc1ncc(Cl)cn1)C(Cl)(Cl)Cl)NS(=O)(=O)c1ccccc1 (stereo not shown) [Compound 10, N-((2,2,2-trichloro-1-((5-chloropyrimidin-2yl)amino)ethyl)carbamoyl)benzenesul fonamide] |
| 34.04 ± 0.02 µM | 68.9 ± 2.67 µM | 27.8 ± 1.85 µM | 23.5 ± 4.17 µM | – | – | – | – | – | Nc1c(Cl)nc(NC(NC(=O)OCCc2ccccc2)C(Cl)(Cl)Cl)nc1Cl (stereo not shown) [Compound 19, Phenethyl(1-((5-amino-4,6-dichloropyrimidin-2-yl)amino)-2,2,2-trichloroethyl)carbamate] |
| 41.6 ± 8.81 µM | 52.2 ± 0.63 µM | 32.5 ± 6.31 µM | 37.3 ± 1.63 µM | – | – | – | – | – | Nc1nc(Cl)cc(NC(NC(=O)NCCc2ccccc2)C(Cl)(Cl)Cl)n1 (stereo not shown) [Compound 25, 1-(1-((2-amino-6-chloropyrimidin-4-yl)amino)-2,2,2-trichloroe-thyl)-3-phenethylurea] |
| 34.2 ± 5.16 µM | 34.7 ± 1.23 µM | 20.7 ± 3.6 µM | 21.3 ± 4.52 µM | < 40 µM | – | – | – | – | O=C(NCCc1ccccc1)NC(Nc1nccc(C(F)(F)F)n1)C(Cl)(Cl)Cl (stereo not shown) [Compound 7, 1-phenethyl-3-(2,2,2-trichloro-1-((4-(trifluoromethyl)pyrimidin-2-yl)aminno16)ethyl)urea] |
| – | – | – | – | – | 60 ± 7.55 µM | 25.2 ± 10.8 µM | > 100 µM | > 100 µM | 1-phenethyl-3-(2,2,2-trichloro-1-((2,6-dichloropyrimidin-4-yl)amino)ethyl)urea [Compound 17] |
| 0.17 ± 0.08 µM | 0.61 ± 0.12 µM | 0.28 ± 0.13 µM | 0.41 ± 0.05 µM | – | – | – | – | – | Nc1nc(F)nc2c1ncn2C(NC(=O)NCCc1ccccc1)C(Cl)(Cl)Cl (stereo not shown) [Compound 28, 1-(1-(6-amino-2-fluoro-9H-purin-9-yl)-2,2,2-trichloroethyl)-3-phenethylurea] |
| > 100 µM | > 100 µM | > 100 µM | > 100 µM | > 80 µM | – | – | – | – | Cc1ncc([N+](=O)[O-])n1CCNC(=O)NC(Nc1ncccn1)C(Cl)(Cl)Cl (stereo not shown) [Compound 1, 1-(2-(2-methyl-5-nitro-1H-imidazol-1-yl)ethyl)-3-(2,2,2-trichloro-1-(pyrimidin-2-ylamino)ethyl)urea] |
| > 100 µM | > 100 µM | 67.9 ± 6.74 µM | 60.4 ± 3.91 µM | – | – | – | – | – | Cc1cnc(NC(NC(=O)NCCc2ccccc2)C(Cl)(Cl)Cl)nc1 (stereo not shown) [Compound 23, 1-phenethyl-3-(2,2,2-trichloro-1-((5-methylpyrimidin-2-yl)ami-no)ethyl)urea] |
| 79.6 ± 45.2 µM | > 100 µM | 51.8 ± 2.43 µM | 44.7 ± 7.62 µM | – | – | – | – | – | O=C(NCCc1ccccc1)NC(Nc1ncc([N+](=O)[O-])cn1)C(Cl)(Cl)Cl (stereo not shown) [Compound 14, 1-phenethyl-3-(2,2,2-trichloro-1-((5-nitropyrimidin-2-yl)amin-o)ethyl)urea] |
| 36.7 ± 1.23 µM | 50.4 ± 3.07 µM | 30.59 ± 0.1 µM | 33.8 ± 1.91 µM | – | – | – | – | – | O=C(NCCc1ccccc1)NC(Nc1nc(Cl)cc(Cl)n1)C(Cl)(Cl)Cl (stereo not shown) [Compound 18, 1-phenethyl-3-(2,2,2-trichloro-1-((4,6-dichloropyrimidin-2-yl)amino)ethyl)urea, sodium salt] |
| – | – | – | – | – | 31.9 ± 3.29 µM | 27.81 ± 0.17 µM | 26.13 ± 0.05 µM | 24.8 ± 9.49 µM | 1-phenethyl-3-(2,2,2-trichloro-1-((4,6-difluoropyrimidin-2-yl)amino)ethyl)urea [Compound 22] |
| > 100 µM | > 100 µM | > 100 µM | > 100 µM | – | – | – | – | – | CCCNC(=O)NC(Nc1ncc([N+](=O)[O-])cn1)C(Cl)(Cl)Cl (stereo not shown) [Compound 13, 1-propyl-3-(2,2,2-trichloro-1-((5-nitropyrimidin-2-yl)amino)ethyl)urea] |
| > 100 µM | > 100 µM | > 100 µM | > 100 µM | – | – | – | – | – | O=C(NCCc1ccccc1)NC(Nc1ncc(Cl)cn1)C(Cl)(Cl)Cl (stereo not shown) [Compound 9, 1-phenethyl-3-(2,2,2-trichloro-1-((5-chloropyrimidin-2-yl)amino)ethyl)urea] |
| 44.7 ± 4.6 µM | 61.6 ± 11.1 µM | 32.8 ± 3.94 µM | 44.8 ± 8.78 µM | – | – | – | – | – | Nc1cc(Cl)nc(NC(NC(=O)NCCc2ccccc2)C(Cl)(Cl)Cl)n1 (stereo not shown) [Compound 26, 1-(1-((4-amino-6-chloropyrimidin-2-yl)amino)-2,2,2-trichloroe-thyl)-3-phenethylurea] |
| > 100 µM | 73 ± 42.7 µM | 58 ± 10.6 µM | 72.4 ± 30.9 µM | – | – | – | – | – | O=C(NCCc1ccccc1)NC(NNc1nccc(C(F)(F)F)n1)C(Cl)(Cl)Cl (stereo not shown) [Compound 30, 1-phenethyl-3-(2,2,2-trichloro-1-(2-(4-(trifluoromethyl)pyrimi-din-2-yl)hydrazinyl)ethyl)urea] |
